Values after ≈ are worked out from the molar mass of the structure shown. Active and inactive are the calls of the source. No rule for the calls is given here.
What was measured:
[1] = test system: Escherichia coli; experiment: Antimicrobial activity against Escherichia coli CIP 53126 after 18 to 24 hrs by broth microdilution method; format: functional
[2] = test system: Staphylococcus aureus; experiment: Antimicrobial activity against multidrug-resistant Staphylococcus aureus isolate 2 after 18 to 24 hrs by broth microdilution method; format: functional
[3] = test system: Staphylococcus aureus; experiment: Antimicrobial activity against multidrug-resistant Staphylococcus aureus isolate 1 after 18 to 24 hrs by broth microdilution method; format: functional
[4] = test system: Pseudomonas aeruginosa; experiment: Antimicrobial activity against Pseudomonas aeruginosa CIP 82.118 after 18 to 24 hrs by broth microdilution method; format: functional
[5] = test system: Mycobacterium tuberculosis; experiment: Antimycobacterial activity against Mycobacterium tuberculosis H37Rv assessed as growth inhibition at 0.1 uM after 6 days by MTT colorimetric microassay; format: functional, organism-based
[6] = test system: Staphylococcus aureus; experiment: Antimicrobial activity against methicillin-resistant Staphylococcus aureus ATCC 33591 after 18 to 24 hrs by broth microdilution method; format: functional
[7] = test system: Staphylococcus aureus; experiment: Antimicrobial activity against methicillin-resistant Staphylococcus aureus ATCC 33592 after 18 to 24 hrs by broth microdilution method; format: functional
[8] = test system: Enterococcus hirae; experiment: Antimicrobial activity against Enterococcus hirae CIP 5855 after 18 to 24 hrs by broth microdilution method; format: functional
[9] = test system: Staphylococcus aureus; experiment: Antimicrobial activity against Staphylococcus aureus CIP 4.83 after 18 to 24 hrs by broth microdilution method; format: functional

## O=C(O)c1cn(C2CC2)c2cc(N3CCN(C(=O)CCCCCCCCCCC(=O)N4CCN(c5cc6c(cc5F)c(=O)c(C(=O)O)cn6C5CC5)CC4)CC3)c(F)cc2c1=O
[1]
  MBC: 62.5 µM (≈ 53.6 µg/mL)
  MIC: 62.5 µM (≈ 53.6 µg/mL)
[2]
  MBC: 500 µM (≈ 428 µg/mL)
  MIC: 125 µM (≈ 107 µg/mL)
[3]
  MBC: 500 µM (≈ 428 µg/mL)
  MIC: 125 µM (≈ 107 µg/mL)
[4]
  MBC: 250 µM (≈ 214 µg/mL)
  MIC: 62.5 µM (≈ 53.6 µg/mL)
[5]
  growth inhibition (GI): inactive
[6]
  MBC: 3.9 µM (≈ 3.34 µg/mL)
  MIC: 0.48 µM (≈ 0.411 µg/mL)
[7]
  MBC: 1.9 µM (≈ 1.63 µg/mL)
  MIC: 0.12 µM (≈ 0.103 µg/mL)
[8]
  MBC: 500 µM (≈ 428 µg/mL)
  MIC: 125 µM (≈ 107 µg/mL)
[9]
  MBC: ≤ 0.97 µM
  MIC: ≤ 0.12 µM

## O=C(O)c1cn(C2CC2)c2cc(N3CCN(C(=O)COCc4ccccc4)CC3)c(F)cc2c1=O
[1]
  MBC: 1.9 µM (≈ 0.911 µg/mL)
  MIC: ≤ 0.97 µM
[2]
  MBC: 125 µM (≈ 59.9 µg/mL)
  MIC: 62.5 µM (≈ 30 µg/mL)
[3]
  MBC: 500 µM (≈ 240 µg/mL)
  MIC: 125 µM (≈ 59.9 µg/mL)
[4]
  MBC: 250 µM (≈ 120 µg/mL)
  MIC: 15.6 µM (≈ 7.48 µg/mL)
[5]
  growth inhibition (GI): inactive
[6]
  MBC: 0.97 µM (≈ 0.465 µg/mL)
  MIC: 0.48 µM (≈ 0.23 µg/mL)
[7]
  MBC: 0.97 µM (≈ 0.465 µg/mL)
  MIC: 0.24 µM (≈ 0.115 µg/mL)
[8]
  MBC: 7.8 µM (≈ 3.74 µg/mL)
  MIC: 7.8 µM (≈ 3.74 µg/mL)
[9]
  MBC: ≤ 0.24 µM
  MIC: ≤ 0.12 µM

## CCCC(=O)N1CCN(c2cc3c(cc2F)c(=O)c(C(=O)O)cn3C2CC2)CC1
[1]
  MBC: 7.8 µM (≈ 3.13 µg/mL)
  MIC: 7.8 µM (≈ 3.13 µg/mL)
[2]
  MBC: 62.5 µM (≈ 25.1 µg/mL)
  MIC: 31.2 µM (≈ 12.5 µg/mL)
[3]
  MBC: 62.5 µM (≈ 25.1 µg/mL)
  MIC: 31.2 µM (≈ 12.5 µg/mL)
[4]
  MBC: 250 µM (≈ 100 µg/mL)
  MIC: 62.5 µM (≈ 25.1 µg/mL)
[5]
  growth inhibition (GI): inactive
[6]
  MBC: 0.48 µM (≈ 0.193 µg/mL)
  MIC: 0.48 µM (≈ 0.193 µg/mL)
[7]
  MBC: 0.48 µM (≈ 0.193 µg/mL)
  MIC: 0.24 µM (≈ 0.0963 µg/mL)
[8]
  MBC: 7.8 µM (≈ 3.13 µg/mL)
  MIC: 7.8 µM (≈ 3.13 µg/mL)
[9]
  MBC: ≤ 0.48 µM
  MIC: ≤ 0.48 µM

## O=C(CCCCCCCCCCCCCC(=O)OCN1CCN(c2cc3c(cc2F)c(=O)c(C(=O)O)cn3C2CC2)CC1)OCN1CCN(c2cc3c(cc2F)c(=O)c(C(=O)O)cn3C2CC2)CC1
[1]
  MBC: 62.5 µM (≈ 59.9 µg/mL)
  MIC: 31.2 µM (≈ 29.9 µg/mL)
[2]
  MBC: 62.5 µM (≈ 59.9 µg/mL)
  MIC: 31.2 µM (≈ 29.9 µg/mL)
[3]
  MBC: 500 µM (≈ 480 µg/mL)
  MIC: 62.5 µM (≈ 59.9 µg/mL)
[4]
  MBC: 250 µM (≈ 240 µg/mL)
  MIC: 62.5 µM (≈ 59.9 µg/mL)
[5]
  growth inhibition (GI): inactive
[6]
  MBC: 1.9 µM (≈ 1.82 µg/mL)
  MIC: 0.48 µM (≈ 0.46 µg/mL)
[7]
  MBC: 0.97 µM (≈ 0.93 µg/mL)
  MIC: 0.12 µM (≈ 0.115 µg/mL)
[8]
  MBC: 15.6 µM (≈ 15 µg/mL)
  MIC: 7.8 µM (≈ 7.48 µg/mL)
[9]
  MBC: ≤ 0.48 µM
  MIC: ≤ 0.12 µM

## O=C(CCCCCCCCCCCCCCC(=O)OCN1CCN(c2cc3c(cc2F)c(=O)c(C(=O)O)cn3C2CC2)CC1)OCN1CCN(c2cc3c(cc2F)c(=O)c(C(=O)O)cn3C2CC2)CC1
[1]
  MBC: 15.6 µM (≈ 15.2 µg/mL)
  MIC: 7.8 µM (≈ 7.59 µg/mL)
[2]
  MBC: 500 µM (≈ 487 µg/mL)
  MIC: 125 µM (≈ 122 µg/mL)
[3]
  MBC: 500 µM (≈ 487 µg/mL)
  MIC: 125 µM (≈ 122 µg/mL)
[4]
  MBC: 250 µM (≈ 243 µg/mL)
  MIC: 62.5 µM (≈ 60.8 µg/mL)
[5]
  growth inhibition (GI): inactive
[6]
  MBC: 15.6 µM (≈ 15.2 µg/mL)
  MIC: 7.8 µM (≈ 7.59 µg/mL)
[7]
  MBC: 1.9 µM (≈ 1.85 µg/mL)
  MIC: 0.97 µM (≈ 0.944 µg/mL)
[8]
  MBC: 62.5 µM (≈ 60.8 µg/mL)
  MIC: 31.2 µM (≈ 30.4 µg/mL)
[9]
  MBC: ≤ 0.97 µM
  MIC: ≤ 0.97 µM

## CC(=O)N1CCN(c2cc3c(cc2F)c(=O)c(C(=O)O)cn3C2CC2)CC1
[1]
  MBC: 1.9 µM (≈ 0.709 µg/mL)
  MIC: 1.9 µM (≈ 0.709 µg/mL)
[2]
  MBC: 62.5 µM (≈ 23.3 µg/mL)
  MIC: 31.2 µM (≈ 11.6 µg/mL)
[3]
  MBC: 500 µM (≈ 187 µg/mL)
  MIC: 62.5 µM (≈ 23.3 µg/mL)
[4]
  MBC: 31.2 µM (≈ 11.6 µg/mL)
  MIC: 31.2 µM (≈ 11.6 µg/mL)
[5]
  growth inhibition (GI): inactive
[6]
  MBC: 0.97 µM (≈ 0.362 µg/mL)
  MIC: 0.97 µM (≈ 0.362 µg/mL)
[7]
  MBC: 0.97 µM (≈ 0.362 µg/mL)
  MIC: 0.48 µM (≈ 0.179 µg/mL)
[8]
  MBC: 7.8 µM (≈ 2.91 µg/mL)
  MIC: 7.8 µM (≈ 2.91 µg/mL)
[9]
  MBC: 1.9 µM (≈ 0.709 µg/mL)
  MIC: ≤ 0.48 µM

## CC(=O)OCC(=O)N1CCN(c2cc3c(cc2F)c(=O)c(C(=O)O)cn3C2CC2)CC1
[1]
  MBC: 15.6 µM (≈ 6.73 µg/mL)
  MIC: 7.8 µM (≈ 3.37 µg/mL)
[2]
  MBC: 125 µM (≈ 53.9 µg/mL)
  MIC: 125 µM (≈ 53.9 µg/mL)
[3]
  MBC: 500 µM (≈ 216 µg/mL)
  MIC: 125 µM (≈ 53.9 µg/mL)
[4]
  MBC: 250 µM (≈ 108 µg/mL)
  MIC: 62.5 µM (≈ 27 µg/mL)
[5]
  growth inhibition (GI): inactive
[6]
  MBC: 3.9 µM (≈ 1.68 µg/mL)
  MIC: 3.9 µM (≈ 1.68 µg/mL)
[7]
  MBC: 1.9 µM (≈ 0.82 µg/mL)
  MIC: 0.97 µM (≈ 0.418 µg/mL)
[8]
  MBC: 15.6 µM (≈ 6.73 µg/mL)
  MIC: 15.6 µM (≈ 6.73 µg/mL)
[9]
  MBC: ≤ 0.97 µM
  MIC: ≤ 0.97 µM

## O=C(O)c1cn(C2CC2)c2cc(N3CCN(C(=O)Cc4ccccc4)CC3)c(F)cc2c1=O
[1]
  MBC: 7.8 µM (≈ 3.51 µg/mL)
  MIC: 3.9 µM (≈ 1.75 µg/mL)
[2]
  MBC: 15.6 µM (≈ 7.01 µg/mL)
  MIC: 15.6 µM (≈ 7.01 µg/mL)
[3]
  MBC: 62.5 µM (≈ 28.1 µg/mL)
  MIC: 31.2 µM (≈ 14 µg/mL)
[4]
  MBC: 250 µM (≈ 112 µg/mL)
  MIC: 62.5 µM (≈ 28.1 µg/mL)
[5]
  growth inhibition (GI): inactive
[6]
  MBC: 0.24 µM (≈ 0.108 µg/mL)
  MIC: 0.12 µM (≈ 0.0539 µg/mL)
[7]
  MBC: 0.24 µM (≈ 0.108 µg/mL)
  MIC: 0.12 µM (≈ 0.0539 µg/mL)
[8]
  MBC: 7.8 µM (≈ 3.51 µg/mL)
  MIC: 3.9 µM (≈ 1.75 µg/mL)
[9]
  MBC: ≤ 0.24 µM
  MIC: ≤ 0.12 µM

## CCCCC(=O)N1CCN(c2cc3c(cc2F)c(=O)c(C(=O)O)cn3C2CC2)CC1
[1]
  MBC: 15.6 µM (≈ 6.48 µg/mL)
  MIC: 7.8 µM (≈ 3.24 µg/mL)
[2]
  MBC: 31.2 µM (≈ 13 µg/mL)
  MIC: 31.2 µM (≈ 13 µg/mL)
[3]
  MBC: 500 µM (≈ 208 µg/mL)
  MIC: 62.5 µM (≈ 26 µg/mL)
[4]
  MBC: 250 µM (≈ 104 µg/mL)
  MIC: 62.5 µM (≈ 26 µg/mL)
[5]
  growth inhibition (GI): inactive
[6]
  MBC: 0.48 µM (≈ 0.199 µg/mL)
  MIC: 0.48 µM (≈ 0.199 µg/mL)
[7]
  MBC: 0.48 µM (≈ 0.199 µg/mL)
  MIC: 0.24 µM (≈ 0.0997 µg/mL)
[8]
  MBC: 7.8 µM (≈ 3.24 µg/mL)
  MIC: 7.8 µM (≈ 3.24 µg/mL)
[9]
  MBC: ≤ 0.48 µM
  MIC: ≤ 0.24 µM

## CCC(=O)N1CCN(c2cc3c(cc2F)c(=O)c(C(=O)O)cn3C2CC2)CC1
[1]
  MBC: 500 µM (≈ 194 µg/mL)
  MIC: 3.9 µM (≈ 1.51 µg/mL)
[2]
  MBC: 31.2 µM (≈ 12.1 µg/mL)
  MIC: 31.2 µM (≈ 12.1 µg/mL)
[3]
  MBC: 500 µM (≈ 194 µg/mL)
  MIC: 62.5 µM (≈ 24.2 µg/mL)
[4]
  MBC: 250 µM (≈ 96.9 µg/mL)
  MIC: 31.2 µM (≈ 12.1 µg/mL)
[5]
  growth inhibition (GI): inactive
[6]
  MBC: 0.97 µM (≈ 0.376 µg/mL)
  MIC: 0.48 µM (≈ 0.186 µg/mL)
[7]
  MBC: 0.48 µM (≈ 0.186 µg/mL)
  MIC: 0.24 µM (≈ 0.093 µg/mL)
[8]
  MBC: 3.9 µM (≈ 1.51 µg/mL)
  MIC: 3.9 µM (≈ 1.51 µg/mL)
[9]
  MBC: ≤ 0.97 µM
  MIC: ≤ 0.48 µM

— ChEMBL document CHEMBL1914411, “Synthesis of lipophilic dimeric C-7/C-7-linked ciprofloxacin and C-6/C-6-linked levofloxacin derivatives. Versatile in vitro biological evaluations of monomeric and dimeric fluoroquinolone derivatives as potential antitumor, antibacterial or antimycobacterial agents” (Eur J Med Chem, 2011)
